Laboratory results as given in US12129246B1, “Hydroquinazoline derivatives for the treatment of a disease or disorder” (Novartis AG, priority 2023, dated 2024).

Legend:
monkey NPR1 = monkey NPR1 (Macaca fascicularis, UniProt A0A7N9DBT9); assay: Cellular cGMP production assay, monkey NPR1 expressing CHO-K1 cells (CisBio HTRF); format: cell-based; details: monkey NPR1 CHO-K1 cells
Method: (§1) Cellular cGMP is a major second messenger that mediates cell activities and is synthesized by activated NPR1 triggered by binding of the natural ligand ANP. […] The assay was performed according to manufacturer's instructions with minor deviations. […] All compound stocks were diluted in PBS+0.1% BSA at 2-fold the final assay concentration. After addition of 10 μL/well of assay buffer (PBS+0.1% BSA+1 mM IBMX) and 10 μL/well of the compounds in different concentrations (12-point dose-response with 3-fold dilutions from a top concentration of 30 μM), the plate was incubated for 30 min at 37° C. to allow for cGMP production. In parallel, a standard curve using a calibrator (contained in the kit) was generated. The cells were lysed and a mix of cGMP-d2 and anti-cGMP-cryptate was added and incubated for 1 h at room temperature. The readout was performed using an Envision plate reader (PerkinElmer) with an excitation wavelength of 317 nm and an emission wavelength of 665 nm. cGMP concentration (Delta F [° %]) was calculated according to the following formulae: […]

human NPR1 = biological target: T1, human NPR1 (Homo sapiens, UniProt P16066); assay: Cellular cGMP production assay, human NPR1 expressing CHO-K1 cells (CisBio HTRF); format: cell-based; details: for AC50: cGMP production, 30 min at 37° C., 12-point dose-response from 30 μM; for Human NPR1 Amax (% of ANP): maximum cGMP production as percentage of the maximum cGMP produced with ANP
T1 construct: host or cells: CHO-K1
T1 sequence (P16066 33-1061): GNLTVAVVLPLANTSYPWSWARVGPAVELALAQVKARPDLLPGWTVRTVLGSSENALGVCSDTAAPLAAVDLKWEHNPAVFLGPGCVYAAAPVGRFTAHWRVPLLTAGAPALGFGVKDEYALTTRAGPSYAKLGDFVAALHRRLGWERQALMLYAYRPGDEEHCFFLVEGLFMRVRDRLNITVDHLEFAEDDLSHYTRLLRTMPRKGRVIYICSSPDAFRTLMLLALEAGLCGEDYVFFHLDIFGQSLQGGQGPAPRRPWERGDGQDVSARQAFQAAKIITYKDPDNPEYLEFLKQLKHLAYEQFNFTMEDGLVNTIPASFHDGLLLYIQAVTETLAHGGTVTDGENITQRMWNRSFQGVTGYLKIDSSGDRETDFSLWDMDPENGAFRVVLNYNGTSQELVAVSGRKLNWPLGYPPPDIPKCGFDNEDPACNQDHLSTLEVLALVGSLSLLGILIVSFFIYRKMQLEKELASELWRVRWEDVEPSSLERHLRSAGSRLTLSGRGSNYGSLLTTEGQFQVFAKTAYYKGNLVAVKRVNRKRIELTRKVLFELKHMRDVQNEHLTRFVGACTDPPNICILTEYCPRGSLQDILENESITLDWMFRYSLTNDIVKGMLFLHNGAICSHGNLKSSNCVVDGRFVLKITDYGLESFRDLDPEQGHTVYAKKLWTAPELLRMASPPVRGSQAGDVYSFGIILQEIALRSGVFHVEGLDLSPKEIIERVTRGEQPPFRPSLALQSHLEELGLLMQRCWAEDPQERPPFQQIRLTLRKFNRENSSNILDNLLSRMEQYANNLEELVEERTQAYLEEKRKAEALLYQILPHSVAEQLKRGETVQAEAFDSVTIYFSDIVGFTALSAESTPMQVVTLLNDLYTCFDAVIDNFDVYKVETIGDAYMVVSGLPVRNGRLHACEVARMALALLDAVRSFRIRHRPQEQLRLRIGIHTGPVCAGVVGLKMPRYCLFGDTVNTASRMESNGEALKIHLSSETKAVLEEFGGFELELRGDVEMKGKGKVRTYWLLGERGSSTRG
Method: as §1

Chain of monkey NPR1 (A0A7N9DBT9 entry or part of it): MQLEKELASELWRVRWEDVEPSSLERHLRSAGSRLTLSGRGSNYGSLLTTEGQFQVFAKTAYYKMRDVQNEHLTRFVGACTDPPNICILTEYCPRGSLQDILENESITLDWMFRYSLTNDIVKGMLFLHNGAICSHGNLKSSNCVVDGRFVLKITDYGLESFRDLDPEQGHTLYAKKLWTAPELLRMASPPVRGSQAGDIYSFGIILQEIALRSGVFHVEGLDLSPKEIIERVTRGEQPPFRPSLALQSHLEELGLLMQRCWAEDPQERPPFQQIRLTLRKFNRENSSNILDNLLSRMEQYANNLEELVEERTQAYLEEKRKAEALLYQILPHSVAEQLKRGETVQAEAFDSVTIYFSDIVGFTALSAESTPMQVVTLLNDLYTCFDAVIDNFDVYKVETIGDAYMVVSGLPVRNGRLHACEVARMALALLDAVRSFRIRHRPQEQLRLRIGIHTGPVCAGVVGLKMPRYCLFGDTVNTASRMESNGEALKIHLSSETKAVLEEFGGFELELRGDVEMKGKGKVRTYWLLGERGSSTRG

| Compound | AC50 (human NPR1) | Human NPR1 Amax (% of ANP) (human NPR1) | AC50 (monkey NPR1; cGMP production, 30 min at 37° C., 12-point dose-response from 30 μM, read-out: Monkey NPR1 AC50) | Monkey NPR1 Amax (% of ANP) (monkey NPR1; maximum cGMP production as percentage of the maximum cGMP produced with ANP) |
| --- | --- | --- | --- | --- |
| CC[C@H](N(C)c1nc2c(c(N[C@@H](CN3CCC[C@H](CF)C3)c3cnn(C)c3)n1)C[C@](C)(c1ccccc1)CC2)C12CC(C(=O)O)(C1)C2 [Compound 43, 3-((S)-1-(((R)-4-(((R)-2-((S)-3-(fluoromethyl)piperidin-1-yl)-1-(1-methyl-1H-pyrazol-4-yl)ethyl)amino)-6-methyl-6-phenyl-5,6,7,8-tetrahydroquinazolin-2-yl)(methyl)amino)propyl)bicyclo[1.1.1]pentane-1-carboxylic acid] | 170 nM | 101.178 % of ANP | 158 nM | 104.036 % of ANP |
| CC[C@H]([C@H]1CC[C@H](C(=O)O)CC1)N(C)c1nc2c(c(N[C@@H](CN3CCC[C@](O)(CC)C3)c3cnn(C)c3)n1)C[C@H](c1ccccc1)CC2 [Compound 178, (1R,4r)-4-((R)-1-(((R)-4-(((R)-2-((R)-3-ethyl-3-hydroxypiperidin-1-yl)-1-(1-methyl-1H-pyrazol-4-yl)ethyl)amino)-6-phenyl-5,6,7,8-tetrahydroquinazolin-2-yl)(methyl)amino)propyl)cyclohexane-1-carboxylic acid] | 362 nM | 112.78 % of ANP |  |  |
| CC[C@H]([C@H]1CC[C@H](C(=O)O)CC1)N(C)c1nc2c(c(N[C@@H](CN3C[C@@H](C)C[C@H](OC)C3)c3cnn(C)c3)n1)C[C@H](c1ccccc1)CC2 [Compound 184, (1R,4r)-4-((R)-1-(((R)-4-(((R)-2-((3S,5S)-3-methoxy-5-methylpiperidin-1-yl)-1-(1-methyl-1H-pyrazol-4-yl)ethyl)amino)-6-phenyl-5,6,7,8-tetrahydroquinazolin-2-yl)(methyl)amino)propyl)cyclohexane-1-carboxylic acid] | 940 nM | 103.67 % of ANP |  |  |
| CC[C@H]([C@H]1CC[C@H](C(=O)O)CC1)N(C)c1nc2c(c(N[C@@H](CN3CCC[C@@](C)(O)C3)c3cnn(C)c3)n1)C[C@H](c1ccccc1)CC2 [Compound 182, (1R,4r)-4-((R)-1-(((R)-4-(((R)-2-((R)-3-hydroxy-3-methylpiperidin-1-yl)-1-(1-methyl-1H-pyrazol-4-yl)ethyl)amino)-6-phenyl-5,6,7,8-tetrahydroquinazolin-2-yl)(methyl)amino)propyl)cyclohexane-1-carboxylic acid] | 250 nM | 110.06 % of ANP |  |  |
| CC[C@H]([C@H]1CC[C@H](C(=O)O)CC1)N(C)c1nc2c(c(N[C@@H](CN3CCC[C@](C)(O)C3)c3cnn(C)c3)n1)C[C@H](c1ccccc1)CC2 [Compound 186, (1R,4r)-4-((R)-1-(((R)-4-(((R)-2-((S)-3-hydroxy-3-methylpiperidin-1-yl)-1-(1-methyl-1H-pyrazol-4-yl)ethyl)amino)-6-phenyl-5,6,7,8-tetrahydroquinazolin-2-yl)(methyl)amino)propyl)cyclohexane-1-carboxylic acid] | 406 nM | 110.66 % of ANP |  |  |
| CC[C@H]([C@H]1CC[C@H](C(=O)O)CC1)N(C)c1nc2c(c(N[C@@H](CN3C[C@H](C)C[C@@H](OC)C3)c3cnn(C)c3)n1)C[C@H](c1ccccc1)CC2 [Compound 183, (1R,4r)-4-((R)-1-(((R)-4-(((R)-2-((3R,5R)-3-methoxy-5-methylpiperidin-1-yl)-1-(1-methyl-1H-pyrazol-4-yl)ethyl)amino)-6-phenyl-5,6,7,8-tetrahydroquinazolin-2-yl)(methyl)amino)propyl)cyclohexane-1-carboxylic acid] | 380 nM | 98.57 % of ANP |  |  |
| CC[C@H]([C@H]1CC[C@H](C(=O)O)CC1)N(C)c1nc2c(c(N[C@@H](CN3CCCC4(CC4)C3)c3cnn(C)c3)n1)C[C@H](c1ccccc1)CC2 [Compound 180, (1R,4r)-4-((R)-1-(methyl((R)-4-(((R)-1-(1-methyl-1H-pyrazol-4-yl)-2-(5-azaspiro[2.5]octan-5-yl)ethyl)amino)-6-phenyl-5,6,7,8-tetrahydroquinazolin-2-yl)amino)propyl)cyclohexane-1-carboxylic acid] | 465 nM | 86.52 % of ANP |  |  |
| CC[C@H]([C@H]1CC[C@H](C(=O)O)CC1)N(C)c1nc2c(c(N[C@@H](CN3CCC[C@H](C)C3)c3cn(C)nc3F)n1)C[C@H](c1ccccc1)CC2 (stereo in doubt) [Compound 185, (1R,4r)-4-((R)-1-(((R)-4-(((S)-1-(3-fluoro-1-methyl-1H-pyrazol-4-yl)-2-((S)-3-methylpiperidin-1-yl)ethyl)amino)-6-phenyl-5,6,7,8-tetrahydroquinazolin-2-yl)(methyl)amino)propyl)cyclohexane-1-carboxylic acid] | 201 nM | 98.01 % of ANP |  |  |

Further lines, with some results ahead:

| AC50 (human NPR1) | Human NPR1 Amax (% of ANP) (human NPR1) | Compound | AC50 (monkey NPR1; cGMP production, 30 min at 37° C., 12-point dose-response from 30 μM, read-out: Monkey NPR1 AC50) | Monkey NPR1 Amax (% of ANP) (monkey NPR1; maximum cGMP production as percentage of the maximum cGMP produced with ANP) |
| --- | --- | --- | --- | --- |
| 488 nM | 107.75 % of ANP | CC[C@H]([C@H]1CC[C@H](C(=O)O)CC1)N(C)c1nc2c(c(N[C@@H](CN3CCC[C@@H]4C[C@@H]43)c3cnn(C)c3)n1)C[C@H](c1ccccc1)CC2 [Compound 177, (1R,4r)-4-((R)-1-(((R)-4-(((R)-2-((1S,6R)-2-azabicyclo[4.1.0]heptan-2-yl)-1-(1-methyl-1H-pyrazol-4-yl)ethyl)amino)-6-phenyl-5,6,7,8-tetrahydroquinazolin-2-yl)(methyl)amino)propyl)cyclohexane-1-carboxylic acid] |  |  |
| 359 nM | 107.70 % of ANP | CC[C@H]([C@H]1CC[C@H](C(=O)O)CC1)N(C)c1nc2c(c(N[C@@H](CN3CCC[C@H]4C[C@H]43)c3cnn(C)c3)n1)C[C@H](c1ccccc1)CC2 [Compound 176, (1R,4r)-4-((R)-1-(((R)-4-(((R)-2-((1R,6S)-2-azabicyclo[4.1.0]heptan-2-yl)-1-(1-methyl-1H-pyrazol-4-yl)ethyl)amino)-6-phenyl-5,6,7,8-tetrahydroquinazolin-2-yl)(methyl)amino)propyl)cyclohexane-1-carboxylic acid] |  |  |
| 1810 nM | 101.57 % of ANP | CC[C@H]([C@H]1CC[C@H](C(=O)O)CC1)N(C)c1nc2c(c(N[C@@H](CN3CC[C@@H](OC)C3)c3cnn(C)c3)n1)C[C@H](c1ccccc1)CC2 [Compound 181, (1R,4r)-4-((R)-1-(((R)-4-(((R)-2-((R)-3-methoxypyrrolidin-1-yl)-1-(1-methyl-1H-pyrazol-4-yl)ethyl)amino)-6-phenyl-5,6,7,8-tetrahydroquinazolin-2-yl)(methyl)amino)propyl)cyclohexane-1-carboxylic acid] |  |  |
| 2710 nM | 97.72 % of ANP | CC[C@H]([C@H]1CC[C@H](C(=O)O)CC1)N(C)c1nc2c(c(N[C@@H](CN3CC[C@@H](O)[C@H](C)C3)c3cnn(C)c3)n1)C[C@H](c1ccccc1)CC2 [Compound 179, (1R,4r)-4-((R)-1-(((R)-4-(((R)-2-((3R,4R)-4-hydroxy-3-methylpiperidin-1-yl)-1-(1-methyl-1H-pyrazol-4-yl)ethyl)amino)-6-phenyl-5,6,7,8-tetrahydroquinazolin-2-yl)(methyl)amino)propyl)cyclohexane-1-carboxylic acid] |  |  |
| 89 nM | 109.91 % of ANP | CC[C@@H](Nc1nc2c(c(N[C@@H](CN3CCCC(CF)C3)c3cnn(C)c3)n1)C[C@H](c1cccc(F)c1)CC2)[C@H]1CC[C@H](C(=O)O)CC1 (stereo partly drawn) [Compound 175, (1R,4r)-4-((1R)-1-(((6R)-4-(((1R)-2-(3-(fluoromethyl)piperidin-1-yl)-1-(1-methyl-1H-pyrazol-4-yl)ethyl)amino)-6-(3-fluorophenyl)-5,6,7,8-tetrahydroquinazolin-2-yl)amino)propyl)cyclohexane-1-carboxylic acid] |  |  |
